According to patent US20250066351A1, “PYRAZOLO[1,5-A]PYRIDIN-2,3-YL AMIDES AS KV7 CHANNEL ACTIVATORS” (Biohaven Therapeutics Ltd., priority 2022, published 2025):

How the values were obtained:
hKv7.2/7.3 [1] = biological target: T1, hKv7.2/7.3 (Homo sapiens, UniProt O43525+O43526); test: Kv7.2/7.3 Activation Assay, QPatch planar patch-clamp single concentration screen; assay type: cell-based; details: increase in current over baseline, Kv7.2/Kv7.3 co-expressing HEK cells, compound concentration 3 μM, steady-state current at end of 2 s pulse to −30 mV
T1 construct: host or cells: HEK cells, tetracycline-inducible expression
In short: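 Tetracycline-induced HEK cells expressing hKv7.2/7.3, recorded 24 h post-induction by automated whole-cell patch clamp (−80 mV hold, 2 s step to −30 mV). Compound tested at 3 μM (0.1% DMSO); fold increase in steady-state current at end of the −30 mV step over baseline.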

hKv7.2/7.3 [2] = biological target: T1, hKv7.2/7.3; test: Kv7.2/7.3 Thallium Flux Assay; assay type: cell-based; set-up: key to Thallium Flux Kv7.2/7.3 Activity: 3-10 μM (*); 1-3 μM (**); <1 μM (***); NC stands for Not Calculable; details: EC50 of Kv7.2/Kv7.3 activation, responses normalized to retigabine 30 μM
Text: The Thallium Flux Assay is used as a surrogate indicator of potassium channel activity.
The experimental protocol was adapted from the FluxOR™ II Green Potassium Ion Channel Assay User Guide (Pub. No. MAN0016084, Invitrogen). Conditions were optimized for the Kv7.2/7.3 cell line.
Cell Line: The hKv7.2/7.3 cell line was obtained from Chantest (Cleveland, OH 44128) cat. #CT6147.
Cell Culture: Kv7.2/7.3 cells were maintained in a media containing DMEM/F12; 50/50 (GIBCO cat. #11330), 10% Fetal Bovine Serum (FBS) (GIBCO cat. #26140), 100 units/mL Penicillin-Streptomycin (GIBCO cat. #15140), 0.005 mg/ml Blasticidin (SIGMA 15205), 0.5 mg/mL Geneticin (GIBCO cat. #10131), and 0.1 mg/mL Zeocin (GIBCO cat. #R25001). One day prior to experimentation, cells were plated in 96 well clear bottom plates (Corning cat. #353219) in a media without Blasticidin, Geneticin, or Zeocin. Channel expression was induced by adding tetracycline (Bioline cat. #BIO87030) at a final concentration of 10 ng/mL.
Compound Plates: The test compound is diluted in a mixture of 0.1% DMSO/extracellular solution with an eight-point concentration range from 0.014 μM to 30 μM. Serial dilutions were made on a Biomek NXP (BECKMAN COULTER).
Measurement and data analysis: A plate reader (Enspire, Perkin Elmer) is used to characterize the ion-channel modulating properties of novel compounds using an excitation wavelength of 475 nm and an emission wavelength of 530 nm. After a 15 sec baseline measurement, the stimulus buffer containing thallium and potassium is injected. A final endpoint measure is taken after 90 sec. Responses are normalized to positive control (retigabine, 30 μM max). Mean normalized responses at each concentration tested are fit to the standard Hill equation to generate an EC50 and maximal response.

With `CC(C)(C)CC(=O)Nc1nn2ccc(C#N)cc2c1C1CCC1` [Example 3, N-(5-cyano-3-cyclobutylpyrazolo[1,5-a]pyridin-2-yl)-3,3-dimethylbutanamide] the “QPatch Kv7.2/7.3 Activity” value (hKv7.2/7.3 [1]) was “+ (2.0-3.99 (+))” and the EC50 (hKv7.2/7.3 [2]) was under 1 µM.
In the case of `CC(C)(O)CC(=O)Nc1nn2ccc(C(F)(F)F)cc2c1-c1ccc(F)cc1` [Example 14, N-(3-(4-fluorophenyl)-5-(trifluoromethyl)pyrazolo [1,5-a]pyridin-2-yl)-3-hydroxy-3-methylbutanamide], the “QPatch Kv7.2/7.3 Activity” value (hKv7.2/7.3 [1]) is reported as “+ (2.0-3.99 (+))” and the EC50 (hKv7.2/7.3 [2]) is reported as under 1 µM.
With `CC(C)(C)CC(=O)Nc1nn2ccc(C(C)(C)O)cc2c1C1CCC1` [Example 57, N-(3-cyclobutyl-5-(2-hydroxypropan-2-yl)pyrazolo[1,5-a]pyridin-2-yl)-3,3-dimethylbutanamide] the “QPatch Kv7.2/7.3 Activity” value (hKv7.2/7.3 [1]) was “++ (4.0-5.99 (++))” and the EC50 (hKv7.2/7.3 [2]) was under 1 µM.
With `CC(C)(C)CC(=O)Nc1nn2ccc(C#N)cc2c1C(C)(C)C` [Example 88, N-(3-(tert-butyl)-5-cyanopyrazolo[1,5-a]pyridin-2-yl)-3,3-dimethylbutanamide] the “Thallium Flux Kv7.2/7.3 Activity” value (hKv7.2/7.3 [2]) was “NC”.
For `CC(C)(C)c1c(NC(=O)CC(C)(C)C(F)(F)F)nn2ccc(C#N)cc12` [Example 89, N-(3-(tert-butyl)-5-cyanopyrazolo[1,5-a]pyridin-2-yl)-4,4,4-trifluoro-3,3-dimethylbutanamide], the “Thallium Flux Kv7.2/7.3 Activity” value (hKv7.2/7.3 [2]) was “NC”.
For `CC(C)(C)c1c(NC(=O)C[C@@H]2CC(F)(F)C2(F)F)nn2ccc(C#N)cc12` [Example 90, (R)-N-(3-(tert-butyl)-5-cyanopyrazolo[1,5-a]pyridin-2-yl)-2-(2,2,3,3-tetrafluorocyclobutyl) acetamide], the “Thallium Flux Kv7.2/7.3 Activity” value (hKv7.2/7.3 [2]) was “NC”.
`CC(C)(C)CC(=O)Nc1nn2ccccc2c1C#N` [Example 91, N-(3-cyanopyrazolo [1,5-a]pyridin-2-yl)-3,3-dimethylbutanamide] was tested, and the “Thallium Flux Kv7.2/7.3 Activity” value (hKv7.2/7.3 [2]) was “NC”.
In the case of `CCOC(=O)c1c(NC(=O)CC(C)(C)C)nn2ccccc12` [Example 92, ethyl 2-(3,3-dimethylbutanamido) pyrazolo[1,5-a]pyridine-3-carboxylate], the “Thallium Flux Kv7.2/7.3 Activity” value (hKv7.2/7.3 [2]) is reported as “NC”.
Compound `CC(C)(C)CC(=O)Nc1nn2ccccc2c1C(C)(C)O` [Example 93, N-(3-(2-hydroxypropan-2-yl)pyrazolo[1,5-a]pyridin-2-yl)-3,3-dimethylbutanamide] has an EC50 (hKv7.2/7.3 [2]) of under 1 µM.
Work on `N#Cc1ccn2nc(NC(=O)C[C@H]3CC(F)(F)C3(F)F)c(C3CCC3)c2c1` [Example 94, (S)-N-(5-cyano-3-cyclobutylpyrazolo[1,5-a]pyridin-2-yl)-2-(2,2,3,3-tetrafluorocyclobutyl) acetamide] yielded an EC50 (hKv7.2/7.3 [2]) of under 1 µM.
With `CC(C)(O)c1ccn2nc(NC(=O)C[C@H]3CC(F)(F)C3(F)F)c(C3CCC3)c2c1` [Example 95, (S)-N-(3-cyclobutyl-5-(2-hydroxypropan-2-yl)pyrazolo [1,5-a]pyridin-2-yl)-2-(2,2,3,3-tetrafluorocyclobutyl) acetamide] the “QPatch Kv7.2/7.3 Activity” value (hKv7.2/7.3 [1]) was “+ (2.0-3.99 (+))” and the EC50 (hKv7.2/7.3 [2]) was under 1 µM.
In the case of `N#Cc1ccn2nc(NC(=O)C[C@@H]3CC(F)(F)C3(F)F)c(C3CCC3)c2c1` [Example 96, (R)-N-(5-cyano-3-cyclobutylpyrazolo[1,5-a]pyridin-2-yl)-2-(2,2,3,3-tetrafluorocyclobutyl) acetamide], the “Thallium Flux Kv7.2/7.3 Activity” value (hKv7.2/7.3 [2]) is reported as “NC”.
For `N#Cc1ccn2nc(NC(=O)CC3(C(F)(F)F)CC3)c(C3CCC3)c2c1` [Example 97, N-(5-cyano-3-cyclobutylpyrazolo[1,5-a]pyridin-2-yl)-2-(1-(trifluoromethyl)cyclopropyl)acetamide], the “Thallium Flux Kv7.2/7.3 Activity” value (hKv7.2/7.3 [2]) was “NC”.
In the case of `CC(C)(O)c1ccn2nc(NC(=O)C[C@@H]3CC(F)(F)C3(F)F)c(C3CCC3)c2c1` [Example 98, (R)-N-(3-cyclobutyl-5-(2-hydroxypropan-2-yl)pyrazolo[1,5-a]pyridin-2-yl)-2-(2,2,3,3-tetrafluorocyclobutyl) acetamide], the EC50 (hKv7.2/7.3 [2]) is reported as under 1 µM.
